Experimental data reported in ChEMBL document CHEMBL1152073, “Synthesis of novel fluorescently labeled sphingomyelin derivatives useful for sphingomyelinase assay” (Bioorg Med Chem Lett, 1997).

The compounds below were run against T1, Sphingomyelin phosphodiesterase (Homo sapiens) (UniProt P17405) (assay: Compound was evaluated as a substrate for human placental acidic sphingomyelinase utilizing the usual substrate C14-labeled sphingomyelin.).
T1 sequence (whole entry): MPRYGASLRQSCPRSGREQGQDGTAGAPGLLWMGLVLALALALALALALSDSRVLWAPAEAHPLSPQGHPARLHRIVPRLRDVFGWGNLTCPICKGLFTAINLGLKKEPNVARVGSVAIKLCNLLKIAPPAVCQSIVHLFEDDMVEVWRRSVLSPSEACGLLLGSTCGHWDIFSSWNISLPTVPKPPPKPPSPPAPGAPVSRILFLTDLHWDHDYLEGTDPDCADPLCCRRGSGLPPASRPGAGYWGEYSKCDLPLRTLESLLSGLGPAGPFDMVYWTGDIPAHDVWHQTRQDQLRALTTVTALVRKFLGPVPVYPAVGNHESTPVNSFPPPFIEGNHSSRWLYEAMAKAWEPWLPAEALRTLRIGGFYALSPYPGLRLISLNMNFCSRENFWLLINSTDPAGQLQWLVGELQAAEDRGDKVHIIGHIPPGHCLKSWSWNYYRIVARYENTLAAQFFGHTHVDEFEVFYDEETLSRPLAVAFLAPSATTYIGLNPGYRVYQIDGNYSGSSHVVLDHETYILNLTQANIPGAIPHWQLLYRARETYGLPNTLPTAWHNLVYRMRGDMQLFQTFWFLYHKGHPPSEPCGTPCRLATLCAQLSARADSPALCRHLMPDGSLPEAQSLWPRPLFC
Compound `CCCCCCCCCCCCC/C=C/[C@@H](O)[C@H](COP(=O)(O)OCC[N+](C)(C)CCNS(=O)(=O)c1cccc2c(N(C)C)cccc12)NC(=O)CCCCCCCCCCCCCCCCCCC` has a Cleavage rate of 1.32 nM U-1 hr-1. `CCCCCCCCCCCCC/C=C/[C@@H](O)[C@H](COP(=O)([O-])OCC[N+](C)(C)C)NC(=O)CCCCCCCCCCCCCCCCCCC` showed a Cleavage rate of 1.72 nM U-1 hr-1. Work on `CCCCCCCCCCCCC/C=C/[C@@H](O)[C@H](COP(=O)(O)OCCCCCCNc1ccc([N+](=O)[O-])c2nonc12)NC(=O)CCCCCNC(=O)CCCC[C@@H]1SC[C@@H]2NC(=O)N[C@@H]21` yielded a Cleavage rate of 0.29 nM U-1 hr-1. In the case of `CCCCCCCCCCCCC/C=C/[C@@H](O)[C@H](COP(=O)(O)OCCCCNS(=O)(=O)c1cccc2c(N(C)C)cccc12)NC(=O)CCCCCNC(=O)CCCC[C@@H]1SC[C@@H]2NC(=O)N[C@@H]21`, the Cleavage rate is reported as 0.51 nM U-1 hr-1.
